Results from ChEMBL document CHEMBL1158870, “Antitumor agents. 180. Chemical Studies and cytotoxic evaluation of cumingianosides and cumindysoside A, antileukemic triterpene glucosides with a 14,18-cycloapotirucallane skeleton” (1997).

What was measured:
COLO 205 = test: Cytotoxicity against human COLO205 cells by SRB assay; format: functional
HCC 2998 = test: Cytotoxicity against human HCC2998 cells by SRB assay; format: functional
HCT-116 = test: Cytotoxicity against human HCT116 cells by SRB assay; format: functional
HCT-15 = test: Cytotoxicity against human HCT15 cells by SRB assay; format: functional
HT-29 = test: Cytotoxicity against human HT29 cells by SRB assay; format: functional
KM12 = test: Cytotoxicity against human KM12 cells by SRB assay; format: functional
SW-620 = test: Cytotoxicity against human SW620 cells by SRB assay; format: functional
Leukemia cell = test: Cytotoxicity against human Leukemia cells by SRB assay; format: functional
NSCLC = test: Cytotoxicity against human NSCLC cells by SRB assay; format: functional
[1] = Cytotoxicity against human Colon cancer cells by SRB assay; format: functional; details: Cancer cell lines
[2] = Cytotoxicity against human CNS cancer cells by SRB assay; format: functional; details: Cancer cell lines
[3] = Cytotoxicity against human melanoma cells by SRB assay; format: functional; details: Melanoma cell
[4] = Cytotoxicity against human ovarian cancer cells by SRB assay; format: functional; details: Cancer cell lines
[5] = Cytotoxicity against human renal cancer cells by SRB assay; format: functional; details: Cancer cell lines
CCRF-CEM = test: Cytotoxicity against human CCRF-CEM cells by SRB assay; format: functional
[6] = Cytotoxicity against human HL60(TB) cells by SRB assay; format: functional, HL-60(TB); details: HL-60
K562 = test: Cytotoxicity against human K562 cells by SRB assay; format: functional
MOLT-4 = test: Cytotoxicity against human MOLT4 cells by SRB assay; format: functional
RPMI-8226 = test: Cytotoxicity against human RPMI8226 cells by SRB assay; format: functional
SR = test: Cytotoxicity against human SR cells by SRB assay; format: functional
A549 = test: Cytotoxicity against human A549 cells by SRB assay; format: functional
EKVX = test: Cytotoxicity against human EKVX cells by SRB assay; format: functional
HOP-62 = test: Cytotoxicity against human HOP62 cells by SRB assay; format: functional
HOP-92 = test: Cytotoxicity against human HOP92 cells by SRB assay; format: functional
NCI-H226 = test: Cytotoxicity against human NCI-H226 cells by SRB assay; format: functional
NCI-H23 = test: Cytotoxicity against human NCI-H23 cells by SRB assay; format: functional
NCI-H322M = test: Cytotoxicity against human NCI-H322M cells by SRB assay; format: functional
NCI-H460 = test: Cytotoxicity against human NCI-H460 cells by SRB assay; format: functional
NCI-H522 = test: Cytotoxicity against human NCI-H522 cells by SRB assay; format: functional
SF-268 = test: Cytotoxicity against human SF268 cells by SRB assay; format: functional
SF-295 = test: Cytotoxicity against human SF295 cells by SRB assay; format: functional
SNB-19 = test: Cytotoxicity against human SNB19 cells by SRB assay; format: functional
SNB-75 = test: Cytotoxicity against human SNB75 cells by SRB assay; format: functional
U-251 = test: Cytotoxicity against human U251 cells by SRB assay; format: functional
LOX IMVI = test: Cytotoxicity against human LOXIMVI cells by SRB assay; format: functional
Malme-3M = test: Cytotoxicity against human MALME-3M cells by SRB assay; format: functional
M14 = test: Cytotoxicity against human M14 cells by SRB assay; format: functional
SK-MEL-2 = test: Cytotoxicity against human SK-MEL-2 cells by SRB assay; format: functional
SK-MEL-28 = test: Cytotoxicity against human SK-MEL-28 cells by SRB assay; format: functional
SK-MEL-5 = test: Cytotoxicity against human SK-MEL-5 cells by SRB assay; format: functional
UACC-257 = test: Cytotoxicity against human UACC257 cells by SRB assay; format: functional
UACC-62 = test: Cytotoxicity against human UACC62 cells by SRB assay; format: functional
IGROV-1 = test: Cytotoxicity against human IGROV1 cells by SRB assay; format: functional
OVCAR-3 = test: Cytotoxicity against human OVCAR-3 cells by SRB assay; format: functional
OVCAR-4 = test: Cytotoxicity against human OVCAR4 cells by SRB assay; format: functional
OVCAR-5 = test: Cytotoxicity against human OVCAR5 cells by SRB assay; format: functional
OVCAR-8 = test: Cytotoxicity against human OVCAR8 cells by SRB assay; format: functional
SK-OV-3 = test: Cytotoxicity against human SKOV3 cells by SRB assay; format: functional
[7] = Cytotoxicity against human 786-O cells by SRB assay; format: functional; details: 786-0
A498 = test: Cytotoxicity against human A498 cells by SRB assay; format: functional
ACHN = test: Cytotoxicity against human ACHN cells by SRB assay; format: functional
CAKI-1 = test: Cytotoxicity against human Caki1 cells by SRB assay; format: functional
RXF 393 = test: Cytotoxicity against human RXF393 cells by SRB assay; format: functional
SN12C = test: Cytotoxicity against human SN12C cells by SRB assay; format: functional
UO-31 = test: Cytotoxicity against human UO31 cells by SRB assay; format: functional
PC-3 = test: Cytotoxicity against human PC3 cells by SRB assay; format: functional
DU-145 = test: Cytotoxicity against human DU145 cells by SRB assay; format: functional
MCF7 = test: Cytotoxicity against human MCF7 cells by SRB assay; format: functional
[8] = Cytotoxicity against human MCF7/ADR cells by SRB assay; format: functional; details: NCI/ADR-RES
MDA-MB-231 = test: Cytotoxicity against human MDA-MB-231 cells by SRB assay; format: functional
[9] = Cytotoxicity against human Hs 578T cells by SRB assay; format: functional
MDA-MB-435 = test: Cytotoxicity against human MDA-MB-435 cells by SRB assay; format: functional
MDA-N = test: Cytotoxicity against human MDA-N cells by SRB assay; format: functional
BT-549 = test: Cytotoxicity against human BT549 cells by SRB assay; format: functional
T47D = test: Cytotoxicity against human T47D cells by SRB assay; format: functional
[10] = Cytotoxicity against human prostate cancer cells by SRB assay; format: functional; details: Cancer cell lines
[11] = Cytotoxicity against human breast cancer cells by SRB assay; format: functional; details: Cancer cell lines

Work on `C=C(C=O)[C@H](C)[C@@H]1CC[C@]23C[C@]12CC[C@@H]1[C@@]2(C)CC[C@@H](OC(C)=O)C(C)(C)[C@@H]2C[C@@H](O[C@@H]2O[C@H](COC(C)=O)[C@@H](O)[C@H](O)[C@H]2O)[C@]13C` [CUMINDYSODIDE A] yielded a TGI (COLO 205) of 1.4 µM, a TGI (HCC 2998) of 1.4 µM and a TGI (HCT-116) of 1.4 µM. The TGI (HCT-15) was 7.5 µM, the TGI (HT-29) was 11.9 µM and the TGI (KM12) was 9.5 µM. It also gave a TGI (SW-620) of 1.4 µM, a TGI (Leukemia cell) of 4 µM and a TGI (NSCLC) of 12.5 µM. It also gave a TGI [1] of 5 µM, a TGI [2] of 1.4 µM and a TGI [3] of 6.9 µM. The TGI [4] was 10.4 µM and the TGI [5] was 10.8 µM.
In the case of `CC(=O)OC[C@H]1O[C@@H](O[C@@H]2C[C@H]3C(C)(C)[C@H](OC(C)=O)CC[C@]3(C)[C@H]3CC[C@]45C[C@]4(CC[C@H]5[C@@H](C)C[C@@H](O)[C@@H]4OC4(C)C)[C@@]32C)[C@H](O)[C@@H](O)[C@@H]1O` [CUMINGIANOSIDE E], the TGI (COLO 205) is reported as 1.8 µM, the TGI (HCC 2998) is reported as 2.7 µM and the TGI (HCT-116) is reported as 3.5 µM. For the same compound, the TGI (HCT-15) was 6 µM, the TGI (HT-29) was 1.7 µM and the TGI (KM12) was 3.8 µM. It also gave a TGI (SW-620) of 10 µM, a TGI (Leukemia cell) of 1.8 µM and a TGI (NSCLC) of 14.5 µM. The TGI [1] was 4.2 µM, the TGI [2] was 7.9 µM and the TGI [3] was 15.4 µM. It also gave a TGI [4] of 5.9 µM and a TGI [5] of 10 µM.
With `COC(C)(C)[C@@H](O)[C@H](O)C[C@H](C)C1=C2CC[C@@H]3[C@@]4(C)CC[C@@H](OC(C)=O)C(C)(C)[C@@H]4C[C@@H](O[C@@H]4O[C@H](COC(C)=O)[C@@H](O)[C@H](O)[C@H]4O)[C@@]3(C)[C@]2(C)CC1` the GI50 (CCRF-CEM) was 5.37 µM, the GI50 [6] was 3.63 µM and the GI50 (K562) was 6.03 µM. It also gave a GI50 (MOLT-4) of 5.13 µM, a GI50 (RPMI-8226) of 4.17 µM and a GI50 (SR) of 3.09 µM. The GI50 (A549) was 7.76 µM, the GI50 (EKVX) was 12.9 µM and the GI50 (HOP-62) was 14.5 µM. The GI50 (HOP-92) was 12.9 µM, the GI50 (NCI-H226) was 13.2 µM and the GI50 (NCI-H23) was 14.5 µM. For the same compound, the GI50 (NCI-H322M) was 12.9 µM, the GI50 (NCI-H460) was 9.12 µM and the GI50 (NCI-H522) was 12.3 µM. For the same compound, the GI50 (COLO 205) was 10.7 µM, the TGI (COLO 205) was 22.8 µM and the GI50 (HCC 2998) was 3.98 µM. For the same compound, the TGI (HCC 2998) was 13.4 µM, the GI50 (HCT-116) was 6.03 µM and the TGI (HCT-116) was 19.2 µM. For the same compound, the GI50 (HCT-15) was 11 µM, the TGI (HCT-15) was 23.8 µM and the GI50 (HT-29) was 5.13 µM. For the same compound, the TGI (HT-29) was 16.9 µM, the GI50 (KM12) was 3.55 µM and the TGI (KM12) was 18.9 µM. The GI50 (SW-620) was 15.8 µM, the TGI (SW-620) was 30.1 µM and the GI50 (SF-268) was 10.2 µM. The GI50 (SF-295) was 11.5 µM, the GI50 (SNB-19) was 12.3 µM and the GI50 (SNB-75) was 3.89 µM. The GI50 (U-251) was 5.37 µM, the GI50 (LOX IMVI) was 6.31 µM and the GI50 (Malme-3M) was 15.1 µM. The GI50 (M14) was 12.3 µM, the GI50 (SK-MEL-2) was 13.2 µM and the GI50 (SK-MEL-28) was 11.7 µM. For the same compound, the GI50 (SK-MEL-5) was 14.5 µM, the GI50 (UACC-257) was 12.6 µM and the GI50 (UACC-62) was 8.71 µM. It also gave a GI50 (IGROV-1) of 13.2 µM, a GI50 (OVCAR-3) of 7.41 µM and a GI50 (OVCAR-4) of 10.7 µM. For the same compound, the GI50 (OVCAR-5) was 14.8 µM, the GI50 (OVCAR-8) was 12.9 µM and the GI50 (SK-OV-3) was 15.1 µM. The GI50 [7] was 14.5 µM, the GI50 (A498) was 14.1 µM and the GI50 (ACHN) was 10.5 µM. The GI50 (CAKI-1) was 4.07 µM, the GI50 (RXF 393) was 6.92 µM and the GI50 (SN12C) was 13.5 µM. The GI50 (UO-31) was 13.5 µM, the GI50 (PC-3) was 5.62 µM and the GI50 (DU-145) was 15.1 µM. The GI50 (MCF7) was 2.63 µM, the GI50 [8] was 15.1 µM and the GI50 (MDA-MB-231) was 11.5 µM. For the same compound, the GI50 [9] was 11.7 µM, the GI50 (MDA-MB-435) was 12.3 µM and the GI50 (MDA-N) was 11.7 µM. It also gave a GI50 (BT-549) of 15.1 µM, a GI50 (T47D) of 12.6 µM and a TGI (Leukemia cell) of 20.9 µM. For the same compound, the TGI (NSCLC) was 25.6 µM, the TGI [1] was 20.7 µM and the TGI [2] was 23.8 µM. It also gave a TGI [3] of 29.9 µM, a TGI [4] of 25.6 µM and a TGI [10] of 23.5 µM. For the same compound, the TGI [11] was 24.8 µM and the TGI [5] was 23.6 µM.
